{
  "source": "ChEMBL document CHEMBL3745631",
  "about": "“Discovery of highly potent and selective Bruton's tyrosine kinase inhibitors: Pyridazinone analogs with improved metabolic stability” (Bioorg Med Chem Lett, 2016)",
  "key": {"[1]": {"target": "Calcium/calmodulin-dependent protein kinase kinase 2 (Homo sapiens) (UniProt Q96RR4)", "test": "Inhibition of CAMKK2 (unknown origin) at 1 uM"}, "[2]": {"target": "Ephrin type-A receptor 1 (Homo sapiens) (UniProt P21709)", "test": "Inhibition of EphA1 (unknown origin) at 1 uM"}, "[3]": {"target": "Mitogen-activated protein kinase kinase kinase kinase 2 (GCK) (Homo sapiens) (UniProt Q12851)", "test": "Inhibition of GCK (unknown origin) at 1 uM"}, "[4]": {"target": "Tyrosine-protein kinase Mer (Homo sapiens) (UniProt Q12866)", "test": "Inhibition of Mer (unknown origin) at 1 uM"}, "[5]": {"target": "Tyrosine-protein kinase Fyn (Homo sapiens) (UniProt P06241)", "sequence (P06241 2-537 limits assumed)": "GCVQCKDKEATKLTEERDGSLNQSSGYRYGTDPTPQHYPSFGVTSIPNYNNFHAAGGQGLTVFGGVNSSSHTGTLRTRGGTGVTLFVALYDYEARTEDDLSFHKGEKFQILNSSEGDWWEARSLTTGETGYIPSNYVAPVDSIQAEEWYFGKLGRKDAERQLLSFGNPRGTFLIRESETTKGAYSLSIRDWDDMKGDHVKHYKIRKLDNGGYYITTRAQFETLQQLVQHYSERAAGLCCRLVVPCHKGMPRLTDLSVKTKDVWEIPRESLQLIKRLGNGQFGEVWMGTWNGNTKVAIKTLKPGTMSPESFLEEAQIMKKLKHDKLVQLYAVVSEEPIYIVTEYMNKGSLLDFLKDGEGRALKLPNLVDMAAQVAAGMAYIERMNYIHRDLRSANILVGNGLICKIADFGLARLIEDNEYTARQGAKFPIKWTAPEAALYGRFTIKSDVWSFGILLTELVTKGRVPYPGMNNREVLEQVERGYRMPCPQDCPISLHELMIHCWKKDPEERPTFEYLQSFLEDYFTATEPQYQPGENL", "test": "Inhibition of Fyn (unknown origin) at 1 uM"}, "[6]": {"target": "Receptor-type tyrosine-protein kinase FLT3 (Homo sapiens) (UniProt P36888)", "test": "Inhibition of Flt3 (unknown origin) at 1 uM"}, "[7]": {"target": "Dual specificity mitogen-activated protein kinase kinase 6 (Homo sapiens) (UniProt P52564)", "test": "Inhibition of MKK6 (unknown origin) at 1 uM"}, "[8]": {"target": "Protein kinase C delta type (Homo sapiens) (UniProt Q05655)", "test": "Inhibition of PKCdelta (unknown origin) at 1 uM"}, "[9]": {"target": "Serine/threonine-protein kinase SIK2 (Homo sapiens) (UniProt Q9H0K1)", "test": "Inhibition of SIK2 (unknown origin) at 1 uM"}, "[10]": {"target": "Mitogen-activated protein kinase 13 (Homo sapiens) (UniProt O15264)", "test": "Inhibition of p38 delta (unknown origin) at 1 uM"}, "[11]": {"target": "Mitogen-activated protein kinase 9 (Homo sapiens) (UniProt P45984)", "test": "Inhibition of JNK2 (unknown origin) at 1 uM"}, "[12]": {"target": "Mitogen-activated protein kinase 8 (Homo sapiens) (UniProt P45983)", "sequence (P45983 whole entry)": "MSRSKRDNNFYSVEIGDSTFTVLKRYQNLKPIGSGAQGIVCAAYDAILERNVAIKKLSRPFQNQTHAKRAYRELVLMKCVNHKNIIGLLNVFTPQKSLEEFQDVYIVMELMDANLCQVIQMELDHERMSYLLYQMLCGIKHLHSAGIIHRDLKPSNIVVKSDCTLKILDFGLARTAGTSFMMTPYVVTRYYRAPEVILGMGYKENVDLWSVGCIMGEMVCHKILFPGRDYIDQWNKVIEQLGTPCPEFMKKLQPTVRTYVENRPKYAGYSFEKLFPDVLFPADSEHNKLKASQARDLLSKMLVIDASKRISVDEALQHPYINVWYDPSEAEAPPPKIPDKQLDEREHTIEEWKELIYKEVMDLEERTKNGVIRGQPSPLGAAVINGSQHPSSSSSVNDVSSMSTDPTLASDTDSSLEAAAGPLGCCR", "test": "Inhibition of JNK1 alpha1 (unknown origin) at 1 uM"}, "[13]": {"target": "Tyrosine-protein kinase Tec (Homo sapiens) (UniProt P42680)", "sequence (P42680 whole entry)": "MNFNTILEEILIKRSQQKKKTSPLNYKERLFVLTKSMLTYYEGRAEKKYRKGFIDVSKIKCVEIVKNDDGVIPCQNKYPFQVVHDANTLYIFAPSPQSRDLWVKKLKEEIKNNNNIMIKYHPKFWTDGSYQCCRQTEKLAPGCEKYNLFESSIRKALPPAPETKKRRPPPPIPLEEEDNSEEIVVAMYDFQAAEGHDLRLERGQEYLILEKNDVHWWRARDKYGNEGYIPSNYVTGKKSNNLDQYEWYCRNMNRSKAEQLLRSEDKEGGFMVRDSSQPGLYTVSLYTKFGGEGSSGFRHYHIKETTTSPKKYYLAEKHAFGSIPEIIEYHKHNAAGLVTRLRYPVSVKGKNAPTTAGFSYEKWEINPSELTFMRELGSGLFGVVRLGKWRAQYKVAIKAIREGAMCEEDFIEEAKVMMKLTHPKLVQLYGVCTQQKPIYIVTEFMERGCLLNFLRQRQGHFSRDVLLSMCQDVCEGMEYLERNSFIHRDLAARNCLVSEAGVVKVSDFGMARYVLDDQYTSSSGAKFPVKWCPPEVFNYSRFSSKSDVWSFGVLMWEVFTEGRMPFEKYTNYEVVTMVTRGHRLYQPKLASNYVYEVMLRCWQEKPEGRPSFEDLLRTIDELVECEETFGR", "test": "Inhibition of TEC (unknown origin) at 1 uM"}, "[14]": {"target": "CDK8/Cyclin C (Homo sapiens) (UniProt P49336+P24863)", "test": "Inhibition of CDK8/cyclinC (unknown origin) at 1 uM", "assay_type": "protein-complex assay"}, "[15]": {"target": "Serine/threonine-protein kinase DCLK2 (Homo sapiens) (UniProt Q8N568)", "sequence (Q8N568 whole entry)": "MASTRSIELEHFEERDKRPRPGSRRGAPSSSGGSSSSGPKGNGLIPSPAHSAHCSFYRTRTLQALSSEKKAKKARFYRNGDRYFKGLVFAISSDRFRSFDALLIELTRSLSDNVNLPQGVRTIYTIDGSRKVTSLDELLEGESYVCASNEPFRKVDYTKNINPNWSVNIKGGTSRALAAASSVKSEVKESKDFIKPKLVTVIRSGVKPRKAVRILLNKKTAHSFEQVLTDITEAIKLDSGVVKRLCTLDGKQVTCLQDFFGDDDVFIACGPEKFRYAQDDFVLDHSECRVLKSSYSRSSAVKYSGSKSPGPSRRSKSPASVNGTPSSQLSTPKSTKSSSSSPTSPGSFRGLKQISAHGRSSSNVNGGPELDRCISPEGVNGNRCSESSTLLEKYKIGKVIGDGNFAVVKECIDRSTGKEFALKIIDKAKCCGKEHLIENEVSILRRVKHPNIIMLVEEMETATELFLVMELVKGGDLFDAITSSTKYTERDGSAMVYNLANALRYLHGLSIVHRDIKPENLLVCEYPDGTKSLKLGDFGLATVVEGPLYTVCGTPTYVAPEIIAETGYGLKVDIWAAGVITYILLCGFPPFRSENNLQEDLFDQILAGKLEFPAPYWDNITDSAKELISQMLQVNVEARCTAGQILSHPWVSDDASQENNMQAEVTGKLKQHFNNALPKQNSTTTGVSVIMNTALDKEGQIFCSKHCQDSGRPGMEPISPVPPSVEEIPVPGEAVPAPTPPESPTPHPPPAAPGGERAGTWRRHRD", "test": "Inhibition of DCAMKL2 (unknown origin) at 1 uM"}, "[16]": {"test": "Oral bioavailability in dog at 5 mg/kg by LC-MS/MS analysis", "assay_type": "ADME, organism-based, Canis lupus familiaris", "settings": "in vivo"}, "[17]": {"test_system": "Liver microsome", "test": "Intrinsic clearance in human liver microsomes at 1 uM by LC-MS/MS analysis in presence of NADPH", "assay_type": "ADME"}, "[18]": {"target": "Ephrin type-B receptor 1 (Homo sapiens) (UniProt P54762)", "test": "Inhibition of EphB1 (unknown origin) at 1 uM"}, "[19]": {"target": "SRSF protein kinase 3 (Homo sapiens) (UniProt Q9UPE1)", "test": "Inhibition of MSSK1 (unknown origin) at 1 uM"}, "[20]": {"target": "Muscle, skeletal receptor tyrosine-protein kinase (Homo sapiens) (UniProt O15146)", "test": "Inhibition of MusK (unknown origin) at 1 uM"}, "[21]": {"target": "MAP kinase-activated protein kinase 3 (Homo sapiens) (UniProt Q16644)", "test": "Inhibition of MAPKAPK3 (unknown origin) at 1 uM"}, "[22]": {"target": "Casein kinase I isoform epsilon (Homo sapiens) (UniProt P49674)", "test": "Inhibition of CK1 epsilon1 (unknown origin) at 1 uM"}, "[23]": {"target": "Inhibitor of nuclear factor kappa-B kinase subunit alpha (Homo sapiens) (UniProt O15111)", "sequence (O15111 whole entry)": "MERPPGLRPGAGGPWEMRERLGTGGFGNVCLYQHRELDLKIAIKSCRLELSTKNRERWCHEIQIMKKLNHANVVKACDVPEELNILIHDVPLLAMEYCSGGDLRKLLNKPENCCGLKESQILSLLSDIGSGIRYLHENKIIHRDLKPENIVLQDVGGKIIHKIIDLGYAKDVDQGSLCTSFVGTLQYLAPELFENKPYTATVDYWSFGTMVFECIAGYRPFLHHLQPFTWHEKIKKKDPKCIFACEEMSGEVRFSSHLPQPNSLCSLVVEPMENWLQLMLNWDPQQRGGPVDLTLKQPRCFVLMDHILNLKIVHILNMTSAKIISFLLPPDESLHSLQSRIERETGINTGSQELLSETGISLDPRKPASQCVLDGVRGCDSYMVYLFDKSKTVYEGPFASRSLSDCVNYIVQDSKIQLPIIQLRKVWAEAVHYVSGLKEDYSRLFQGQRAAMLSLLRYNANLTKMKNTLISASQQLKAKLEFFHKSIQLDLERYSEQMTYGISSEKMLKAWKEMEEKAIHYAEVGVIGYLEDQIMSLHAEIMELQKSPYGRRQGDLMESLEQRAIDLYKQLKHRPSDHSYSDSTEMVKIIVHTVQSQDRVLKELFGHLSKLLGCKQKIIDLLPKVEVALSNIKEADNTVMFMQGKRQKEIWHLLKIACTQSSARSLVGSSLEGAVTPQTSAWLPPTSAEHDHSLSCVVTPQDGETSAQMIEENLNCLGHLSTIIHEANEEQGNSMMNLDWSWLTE", "test": "Inhibition of IKK alpha (unknown origin) at 1 uM"}, "[24]": {"target": "DNA-dependent protein kinase catalytic subunit (Homo sapiens) (UniProt P78527)", "test": "Inhibition of DNA-PK (unknown origin) at 1 uM"}, "[25]": {"target": "Focal adhesion kinase 1 (Homo sapiens) (UniProt Q05397)", "test": "Inhibition of FAK (unknown origin) at 1 uM"}, "[26]": {"target": "Serine/threonine-protein kinase PLK1 (Homo sapiens) (UniProt P53350)", "test": "Inhibition of PLK1 (unknown origin) at 1 uM"}, "[27]": {"target": "Myosin light chain kinase, smooth muscle (Homo sapiens) (UniProt Q15746)", "test": "Inhibition of MYLK(smMLCK) (unknown origin) at 1 uM"}, "[28]": {"target": "Tyrosine-protein kinase CSK (Homo sapiens) (UniProt P41240)", "test": "Inhibition of CSK (unknown origin) at 1 uM"}, "[29]": {"target": "Serine/threonine-protein kinase Nek6 (Homo sapiens) (UniProt Q9HC98)", "test": "Inhibition of NEK6 (unknown origin) at 1 uM"}, "[30]": {"target": "Cyclin-dependent kinase 5/CDK5 activator 1 (Homo sapiens) (UniProt Q00535+Q15078)", "test": "Inhibition of CDK5/p25 (unknown origin) at 1 uM", "assay_type": "protein-complex assay"}, "[31]": {"target": "MAP kinase-activated protein kinase 2 (Homo sapiens) (UniProt P49137)", "sequence (P49137 whole entry, looked up)": "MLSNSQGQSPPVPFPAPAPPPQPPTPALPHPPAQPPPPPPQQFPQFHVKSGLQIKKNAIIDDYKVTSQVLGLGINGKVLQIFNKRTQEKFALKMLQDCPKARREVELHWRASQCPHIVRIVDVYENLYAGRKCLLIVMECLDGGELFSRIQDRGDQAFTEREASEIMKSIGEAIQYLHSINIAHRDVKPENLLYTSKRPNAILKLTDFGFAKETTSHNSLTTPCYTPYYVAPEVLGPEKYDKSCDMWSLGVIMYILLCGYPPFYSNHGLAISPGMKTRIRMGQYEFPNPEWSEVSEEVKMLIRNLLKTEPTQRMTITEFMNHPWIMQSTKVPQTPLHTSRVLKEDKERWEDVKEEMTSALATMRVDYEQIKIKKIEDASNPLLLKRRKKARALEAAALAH", "test": "Inhibition of MAPKAPK2 (unknown origin) at 1 uM"}, "[32]": {"target": "Vascular endothelial growth factor receptor 1 (Homo sapiens) (UniProt P17948)", "test": "Inhibition of Flt1 (unknown origin) at 1 uM"}, "[33]": {"target": "Tyrosine-protein kinase Tec (Homo sapiens, UniProt P42680)", "sequence (P42680 whole entry)": "as the sequence (P42680 whole entry) above", "test": "Inhibition of TEC (unknown origin)"}, "[34]": {"target": "Tyrosine-protein kinase Blk (Homo sapiens) (UniProt P51451)", "test": "Inhibition of Blk (unknown origin) at 1 uM"}, "[35]": {"target": "Ribosomal protein S6 kinase alpha-1 (Homo sapiens) (UniProt Q15418)", "test": "Inhibition of Rsk1 (unknown origin) at 1 uM"}, "[36]": {"target": "RAC-beta serine/threonine-protein kinase (Homo sapiens) (UniProt P31751)", "test": "Inhibition of AKT2 (unknown origin) at 1 uM"}, "[37]": {"target": "Death-associated protein kinase 3 (Homo sapiens) (UniProt O43293)", "test": "Inhibition of ZIPK (unknown origin) at 1 uM"}, "[38]": {"target": "Platelet-derived growth factor receptor alpha (Homo sapiens) (UniProt P16234)", "test": "Inhibition of PDGFR alpha (unknown origin) at 1 uM"}, "[39]": {"target": "Mitogen-activated protein kinase 10 (Homo sapiens) (UniProt P53779)", "test": "Inhibition of JNK3 (unknown origin) at 1 uM"}, "[40]": {"test": "Inhibition of anti-IgM-stimulated human B cell proliferation"}, "[41]": {"target": "Mitogen-activated protein kinase kinase kinase 2 (Homo sapiens) (UniProt Q9Y2U5)", "test": "Inhibition of MEKK2 (unknown origin) at 1 uM"}, "[42]": {"target": "Misshapen-like kinase 1 (Homo sapiens) (UniProt Q8N4C8)", "sequence (Q8N4C8 whole entry, looked up)": "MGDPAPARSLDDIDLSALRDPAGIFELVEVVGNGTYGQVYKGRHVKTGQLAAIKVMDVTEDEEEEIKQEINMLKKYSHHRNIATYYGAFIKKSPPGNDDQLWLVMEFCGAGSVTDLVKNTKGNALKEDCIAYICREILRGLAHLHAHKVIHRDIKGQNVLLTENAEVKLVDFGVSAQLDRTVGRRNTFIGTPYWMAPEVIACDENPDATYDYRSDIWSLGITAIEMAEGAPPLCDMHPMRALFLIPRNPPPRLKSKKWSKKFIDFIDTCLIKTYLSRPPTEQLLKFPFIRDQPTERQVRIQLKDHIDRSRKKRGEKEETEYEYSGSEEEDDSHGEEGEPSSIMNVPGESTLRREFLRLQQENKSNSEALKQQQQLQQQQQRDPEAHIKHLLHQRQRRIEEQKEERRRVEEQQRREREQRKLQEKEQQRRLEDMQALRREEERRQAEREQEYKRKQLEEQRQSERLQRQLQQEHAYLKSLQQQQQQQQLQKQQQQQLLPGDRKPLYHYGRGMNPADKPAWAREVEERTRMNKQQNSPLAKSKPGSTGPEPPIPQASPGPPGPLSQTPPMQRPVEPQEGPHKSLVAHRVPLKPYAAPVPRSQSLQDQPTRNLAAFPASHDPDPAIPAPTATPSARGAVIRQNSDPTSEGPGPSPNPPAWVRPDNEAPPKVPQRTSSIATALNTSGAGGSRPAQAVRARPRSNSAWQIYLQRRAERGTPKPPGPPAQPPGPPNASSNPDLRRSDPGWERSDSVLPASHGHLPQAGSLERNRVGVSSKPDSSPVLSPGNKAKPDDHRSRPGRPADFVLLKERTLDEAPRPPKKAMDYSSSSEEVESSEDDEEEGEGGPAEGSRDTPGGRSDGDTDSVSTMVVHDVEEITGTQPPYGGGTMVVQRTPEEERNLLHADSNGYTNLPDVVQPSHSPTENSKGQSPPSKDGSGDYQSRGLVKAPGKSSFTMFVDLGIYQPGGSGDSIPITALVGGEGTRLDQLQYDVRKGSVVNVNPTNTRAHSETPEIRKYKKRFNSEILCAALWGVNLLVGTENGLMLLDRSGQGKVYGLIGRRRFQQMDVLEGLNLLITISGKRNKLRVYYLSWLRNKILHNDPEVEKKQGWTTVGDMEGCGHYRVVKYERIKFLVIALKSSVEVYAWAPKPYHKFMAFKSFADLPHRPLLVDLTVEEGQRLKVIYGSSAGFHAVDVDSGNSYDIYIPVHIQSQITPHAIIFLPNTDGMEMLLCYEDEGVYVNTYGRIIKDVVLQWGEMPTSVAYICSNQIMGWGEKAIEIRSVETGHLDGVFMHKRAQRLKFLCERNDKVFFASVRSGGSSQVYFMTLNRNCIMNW", "test": "Inhibition of Mink1 (unknown origin) at 1 uM"}, "[43]": {"test_system": "Salmonella typhimurium", "test": "Genotoxicity in Salmonella typhimurium TA98 by Ames test in presence of S9 fraction", "assay_type": "toxicity, organism-based", "settings": "salmonella enterica subsp. enterica serovar typhimurium"}, "[44]": {"target": "Tyrosine-protein kinase BTK (Mus musculus, UniProt P35991)", "test": "Inhibition of BTK in Balb/c mouse B cells assessed as inhibition of anti-IgM-stimulated CD86 expression by flow cytometry", "assay_type": "cell-based"}},
  "data": [
    {"smiles": "Cc1c(-c2cc(Nc3cc4n(n3)CCN(C)C4)c(=O)[nH]n2)ccc(F)c1NC(=O)c1cc2ccccc2s1", "values": [
      {"measurement": "inhibition", "setting": "[1]", "value": 8.2, "unit": "%"},
      {"measurement": "inhibition", "setting": "[2]", "value": 2.2, "unit": "%"},
      {"measurement": "inhibition", "setting": "[3]", "value": -9, "unit": "%"},
      {"measurement": "inhibition", "setting": "[4]", "value": 3, "unit": "%"},
      {"measurement": "inhibition", "setting": "[5]", "value": 7, "unit": "%"},
      {"measurement": "inhibition", "setting": "[6]", "value": 11.6, "unit": "%"},
      {"measurement": "inhibition", "setting": "[7]", "value": 3, "unit": "%"},
      {"measurement": "inhibition", "setting": "[8]", "value": -8, "unit": "%"},
      {"measurement": "inhibition", "setting": "[9]", "value": -3.9, "unit": "%"},
      {"measurement": "inhibition", "setting": "[10]", "value": 8.6, "unit": "%"},
      {"measurement": "inhibition", "setting": "[11]", "value": 1.8, "unit": "%"},
      {"measurement": "inhibition", "setting": "[12]", "value": 8.7, "unit": "%"},
      {"measurement": "inhibition", "setting": "[13]", "value": 87.9, "unit": "%"},
      {"measurement": "inhibition", "setting": "[14]", "value": 1, "unit": "%"},
      {"measurement": "inhibition", "setting": "[15]", "value": -1.2, "unit": "%"},
      {"measurement": "bioavailability", "setting": "[16]", "value": 65, "unit": "%"},
      {"measurement": "CLH", "setting": "[17]", "value": 6, "unit": "mL/min/kg"},
      {"measurement": "inhibition", "setting": "[18]", "value": 3.2, "unit": "%"},
      {"measurement": "inhibition", "setting": "[19]", "value": 3.4, "unit": "%"},
      {"measurement": "inhibition", "setting": "[20]", "value": 1.4, "unit": "%"},
      {"measurement": "inhibition", "setting": "[21]", "value": 6.9, "unit": "%"},
      {"measurement": "inhibition", "setting": "[22]", "value": 8.6, "unit": "%"},
      {"measurement": "inhibition", "setting": "[23]", "value": 5.3, "unit": "%"},
      {"measurement": "inhibition", "setting": "[24]", "value": 8.5, "unit": "%"},
      {"measurement": "inhibition", "setting": "[25]", "value": 3.6, "unit": "%"},
      {"measurement": "inhibition", "setting": "[26]", "value": 6, "unit": "%"},
      {"measurement": "inhibition", "setting": "[27]", "value": -0.8, "unit": "%"},
      {"measurement": "inhibition", "setting": "[28]", "value": 5.2, "unit": "%"},
      {"measurement": "inhibition", "setting": "[29]", "value": 5.3, "unit": "%"},
      {"measurement": "inhibition", "setting": "[30]", "value": 2.4, "unit": "%"},
      {"measurement": "inhibition", "setting": "[31]", "value": 10.8, "unit": "%"},
      {"measurement": "inhibition", "setting": "[32]", "value": -0.7, "unit": "%"},
      {"measurement": "IC50", "setting": "[33]", "value": 230, "unit": "nM"},
      {"measurement": "inhibition", "setting": "[34]", "value": 10.6, "unit": "%"},
      {"measurement": "inhibition", "setting": "[35]", "value": -0.4, "unit": "%"},
      {"measurement": "inhibition", "setting": "[36]", "value": -0.3, "unit": "%"},
      {"measurement": "inhibition", "setting": "[37]", "value": -2, "unit": "%"},
      {"measurement": "inhibition", "setting": "[38]", "value": 0.2, "unit": "%"},
      {"measurement": "inhibition", "setting": "[39]", "value": 10.3, "unit": "%"},
      {"measurement": "EC50", "setting": "[40]", "value": 6, "unit": "nM"},
      {"measurement": "inhibition", "setting": "[41]", "value": 9.2, "unit": "%"},
      {"measurement": "inhibition", "setting": "[42]", "value": 17.8, "unit": "%"},
      {"measurement": "Activity", "setting": "[43]", "value": "Non-toxic"},
      {"measurement": "IC50", "setting": "[44]", "value": 91, "unit": "nM"}
    ]}
  ]
}
